Data as given in the OPERA property sets (Mansouri et al. 2018).

| SMILES | logP |
| --- | --- |
| CCOC(=O)Cn1cnc(I)c1[N+](=O)[O-] | 0.93 |
| O=C(Cc1cccnc1)NN1CC=CCC1 | 0.05 |
| Clc1cccc2cccc(Cl)c12 | 4.3 |
| CCCCC1C(=O)NC(=O)N(C)C1=O (stereo not drawn) | 1.1 |
| Cc1ccc(Cn2cc(F)c(=O)[nH]c2=O)cc1 | 1.5 |
| O=c1[nH]c(=O)n(Cc2ccccc2)cc1F | 0.89 |
| CC(C(=O)CCN(C)C)N1C(=O)C2CC=CCC2C1=O (stereo not drawn) | 0.77 |
| Cn1nnnc1SCC1=C(C(=O)O)N2C(=O)[C@@H](NC(=O)[C@H](O)c3ccccc3)[C@H]2SC1 | 0.5 |
| O=P(OCC(Br)CBr)(OCC(Br)CBr)OCC(Br)CBr (stereo not drawn) | 4.29 |
| O=C(Cc1nc(I)c([N+](=O)[O-])[nH]1)NCc1cccnc1 | 0.88 |
| CN(Cc1ccc(Br)cc1)N=O | 1.57 |
| N=C(N)N1CCc2ccccc2C1 | 0.75 |
| CN(C)[C@@H]1C(O)=C(C(N)=O)C(=O)[C@@]2(O)C(O)=C3C(=O)c4c(O)cccc4[C@@](C)(O)[C@H]3[C@H](O)[C@@H]12 | -0.9 |
| Clc1ccc(-c2c(Cl)ccc(Cl)c2Cl)cc1Cl | 6.22 |
| CNC12CC=CCC1c1ccccc1C2 (stereo not drawn) | 3.28 |
| Nc1cccc(Cl)c1Cl | 2.82 |
| Nc1nc(=O)c2[nH]c(N)c(Cc3ccsc3)c2[nH]1 | 1.08 |
| C=CC(=O)OCCOCCOCCOCCOC(=O)C=C | 1.26 |
| COC(=O)C1=C(C)NC(C)=C(C(=O)OC(C)C)C1c1cccc2nonc12 (stereo not drawn) | 4.28 |
| CC1=C(C)C(=O)C(Cc2cccnc2)=C(C)C1=O | 2.55 |
| Cc1ccc(Cc2cnc(NCCCCc3ncc(Br)cc3C)[nH]c2=O)cn1 | 3.57 |
| CCC(CC)COC(N)=O | 1.98 |
| COC(=O)c1c(C)[nH]c(-c2cc(Cl)ccn2)c1C(=O)OC | 2.63 |

| SMILES | logP |
| --- | --- |
| CC(=O)OCC1=C(C(=O)OCOC(=O)C(C)(C)C)N2C(=O)C(NC(=O)CSc3ccncc3)C2SC1 (stereo not drawn) | 1.63 |
| CSc1nnc(-c2cc(Cl)cc(Cl)c2)c(=O)n1N | 3.02 |
| CC(C)Cc1ccc(CC(=O)O)cc1 | 3.35 |
| CN1C(CSCC(F)(F)F)Nc2cc(Cl)c(S(N)(=O)=O)cc2S1(=O)=O (stereo not drawn) | 1.9 |
| CC(C)(C)c1ccc(OCC(OC(=O)n2ccnc2)C(C)(C)C)cc1 (stereo not drawn) | 4.82 |
| CCC(=O)OCC1OC(n2cc(I)c(=O)[nH]c2=O)CC1O (stereo not drawn) | 0.68 |
| Cc1cccc(C(N)=O)c1O | 2.12 |
| CSc1ncnc2c1ncn2[C@@H]1O[C@H](CO)[C@@H](O)[C@H]1O | 0.09 |
| O=C(NN1CC=CCC1)C1CC1 | 1.12 |
| CCCc1c(C)nc2ccccn2c1=O | 1.75 |
| CCN(CC)c1cccc(S(=O)(=O)[O-])c1.[Na+] | -1.6 |
| CN(C)C(=O)c1cccc(Oc2ccccc2)c1 | 2.57 |
| CCC(C)(C)c1ccc(CC(=O)O)cc1 | 3.48 |
| Nc1cccc(C(=O)O)c1 | 0.65 |
| CCOC(=O)C1=C(C)NC(C)=C(C(=O)OC)C1c1cccc(Cl)c1Cl (stereo not drawn) | 3.86 |
| CNC=Nc1ccc(C)cc1C | 2.92 |
| CCOCCCn1ccc(=O)c(O)c1C | 0.12 |
| CCOc1cccc(-c2nnc(S)n(C)c2=O)c1 | 2.67 |
| Cc1ncc([N+](=O)[O-])n1CC(O)Cn1c([N+](=O)[O-])cnc1C | 0.31 |
| CCOCCCn1ccc(=O)c(O)c1CC | 0.72 |
| CCC1(c2ccccc2)C(=O)NC(=O)N1S(=O)(=O)c1ccccc1 (stereo not drawn) | 2.44 |
| CC1NC(=O)NC1=O (stereo not drawn) | -0.91 |
| CC(C)(C)C(COc1ccccc1)OC(=S)n1ccnc1 (stereo not drawn) | 4.27 |

| SMILES | logP |
| --- | --- |
| COC(=O)C(C#N)=Cc1ccc(SC)o1 | 2.61 |
| Cc1cc(=O)c(=O)[nH][nH]1 | -0.3 |
| NS(=O)(=O)c1ccc(S(=O)(=O)CCCO)c([N+](=O)[O-])c1 | -0.05 |
| Cn1c(S)nnc(-c2ccc(F)cc2)c1=O | 2.38 |
| N#Cc1ccc(Cl)cc1 | 2.47 |
| OC(CN1C2CCCCCC21)Cn1ccnc1 (stereo not drawn) | 1.44 |
| NC(=O)OC1c2ccccc2C2CCCCC2C1OC(N)=O (stereo not drawn) | 2.17 |
| NS(=O)(=O)c1ccc2c(c1)S(=O)(=O)NC(C(Cl)Cl)N2 (stereo not drawn) | 0.51 |
| CCCN1CCOC2c3cc(O)ccc3OCC21 (stereo not drawn) | 1.97 |
| Fc1ccccc1C1=NCC(=S)N(CC(F)(F)F)c2ccc(Cl)cc21 | 4.03 |
| O=C1CNC(=O)N1Cc1ccccc1 | 0.82 |
| CSc1ccc(OCc2ncc([N+](=O)[O-])n2C)cc1 | 2.5 |
| Cc1cc2n(c1C(=O)c1ccc(Cl)cc1)CCC2C(=O)O (stereo not drawn) | 3.6 |
| COc1cccc(C2C(=O)c3ccccc3C2=O)c1 | 2.88 |
| Cc1c(C)c(C)c(C)c(C)c1C | 5.11 |
| NC(=O)c1csc([C@@H]2O[C@H](CO)[C@@H](O)[C@H]2O)n1 | -1.73 |
| CCCCC(=O)CC(=O)CCCC | 3.56 |
| CCCC(=NOCC)C1C(=O)CC(C)(C2CC2)OC1=O (stereo not drawn) | 3.28 |
| COc1ccccc1/C=C/C(=O)O | 2.54 |
| O=c1c2c(nc3ccccn13)CCC2 | 1.19 |
| Cc1nc2ccccn2c(=O)c1C | 1 |
| CCOP(=S)(OCC)Oc1nc(Cl)c(Cl)cc1Cl | 4.96 |
| CCCCCCCC(=O)N[C@@H]1C(=O)N2[C@@H]1SC(C)(C)[C@@H]2C(=O)O | 3.32 |

| SMILES | logP |
| --- | --- |
| O=C(O)CCCOc1cccc2ccccc12 | 3.5 |
| CCOP(=O)(OCC)OC(=CCl)c1ccc(Cl)cc1Cl | 3.81 |
| OC1CCN(Cc2cccc(COc3ccccc3)c2)CC1 | 2.77 |
| OC[C@H]1NC[C@H](O)[C@@H](O)[C@@H]1O | -1.8 |
| O=C(OCC1OC(n2cc(I)c(=O)[nH]c2=O)CC1O)c1ccc([N+](=O)[O-])cc1 (stereo not drawn) | 1.24 |
| Cc1ccccc1C=O | 2.26 |
| CCCCSc1nnc(C(C)C)c(=O)n1N | 3.21 |
| O=C(Nc1ncnc2c1ncn2[C@@H]1O[C@H](CO)C[C@@H]1F)c1ccccc1 | 0.73 |
| NS(=O)(=O)c1cc2c(cc1F)N=CNS2(=O)=O | -0.29 |
| NNC(=O)c1ccc2c(c1)OCO2 | 1.16 |
| CCC12CCN(CC3(O)CC3)C(Cc3ccc(O)cc31)C2(C)C (stereo not drawn) | 3.82 |
| CS(=O)(=O)c1ccc(OCC(=O)O)cc1 | 0.06 |
| CCCN1CCOC2c3cccc(O)c3OCC21 (stereo not drawn) | 1.93 |
| Cc1[nH]cnc1CSCCNc1[nH]ccc1[N+](=O)[O-] | 1.04 |
| Nc1ccc(S(=O)(=O)N2C(=O)NC(=O)C2(c2ccccc2)c2ccccc2)cc1 | 3.27 |
| COC(=O)NC1=NCC(c2cccc(Cl)c2)N1C (stereo not drawn) | 2.1 |
| CN(C)C(=O)OCc1ccc(C(N)=O)cc1 | 0.77 |
| COC(=O)NC1=NCC(c2ccccc2Cl)N1C (stereo not drawn) | 2.08 |
| COc1ncc(-c2ccncc2)cc1C#N | 2.02 |
| CC(=O)OC(CNC(C)C)COc1cccc2ccccc12 (stereo not drawn) | 4.34 |
| CC(CN1CCCCC1)C(=O)c1ccccc1 (stereo not drawn) | 3.51 |
| Oc1cc(Cl)c(Cl)c(Cl)c1O | 3.71 |
| COC(=O)c1cnc2n(c1=O)CCCC2 | -0.25 |

| SMILES | logP |
| --- | --- |
| CCN1C(=O)NC(Cc2ccccc2)C1=O (stereo not drawn) | 1.61 |
| CNC(=O)NC(=O)C(C)(C(=O)OC)C1C=CCCC1 (stereo not drawn) | 1.75 |
| CCCCN(C)C(=O)c1cccc(Oc2ccccc2)c1 | 3.89 |
| CCOP(=O)(OCC)SCS(=O)(=O)C(C)(C)C | 2.76 |
| COc1cc(NS(=O)(=O)c2ccc(N)cc2)ncn1 | 0.7 |
| CC(C)(C)C(COc1ccc(Cl)cc1)OC(=S)n1ccnc1 (stereo not drawn) | 4.96 |
| CCCCCCC(=O)O | 2.42 |
| NS(=O)(=O)c1cc2c(cc1Cl)NC(C(Cl)Cl)NS2(=O)=O (stereo not drawn) | 0.62 |
| NCC1(CC(=O)O)CCCCC1 | -1.1 |
| COc1c(Cl)cc(Cl)c(O)c1C(=O)NCC1CCCN1CCF (stereo not drawn) | 3.66 |
| CC(=O)N1c2ccc(C)cc2C2CN(C)CCC21 (stereo not drawn) | 1.25 |
| CCOC(=O)C1=C(C)NC(C)=C(C(=O)OCC)C1c1ccccc1/C=C/C(=O)OC(C)(C)C | 5.2 |
| O=C(O)Cn1nnc2ccccc21 | -1.88 |
| CNC(=S)NCCCCC(NC(=O)C(CC(=O)N1CCOCC1)Cc1cccc2ccccc12)C(=O)NC(CC1CCCCC1)C(O)CC(=O)NCCN1CCOCC1 (stereo not drawn) | 1.68 |
| Nc1ccc(C(=O)O)cc1F | 1.41 |
| CN(C)CCN(Cc1cccs1)c1ccccn1 | 2.87 |
| COC(=O)NC1=NCC(c2ccccc2Br)N1 (stereo not drawn) | 1.85 |
| NCCc1cn2ccccc2n1 | 0.59 |
| CCCCCCOc1ccc(CC(=O)O)cc1 | 3.96 |
| CCCCSC(=Nc1cccnc1)SCc1ccc(C(C)(C)C)cc1 | 7 |
| CNC(=O)c1cccc(Oc2ccccc2)c1 | 2.86 |
| CCCC(=O)OCn1cc2c(=O)[nH]cnc2n1 | 0.33 |
| CC1c2nc3ccccc3c(=O)n2CN1C (stereo not drawn) | 0.85 |

| SMILES | logP |
| --- | --- |
| Cc1cc2n(c1C(=O)c1ccccc1)CCC2C(=O)O (stereo not drawn) | 2.85 |
| CC1CC2CC=CCC2(N)c2ccccc21 (stereo not drawn) | 3.4 |
| COC(=O)NC1=NCC(c2ccccc2)N1C (stereo not drawn) | 1.57 |
| O=C(Nc1ccn(C2CC(O)C(CO)O2)c(=O)n1)c1ccccc1 (stereo not drawn) | 0.67 |
| CC(C)(C)C(COc1ccc(C#N)cc1)OC(=O)n1ccnc1 (stereo not drawn) | 3.15 |
| COC(=O)c1cc(=O)[nH]c(=O)[nH]1 | 0.63 |
| CC1(C)S[C@@H]2[C@H](NC(=O)[C@H](N)c3ccc(O)cc3)C(=O)N2[C@H]1C(=O)O | 0.87 |
| OC[C@@H](O)[C@@H](O)[C@H](O)[C@@H](O)CO | -2.2 |
| O=C1c2ccccc2C(=O)C1c1ccc(C(F)(F)F)cc1 | 3.78 |
| CC(=O)NC(CC(N)=O)C(N)=O (stereo not drawn) | -2.41 |
| OC(Cn1ccnc1)(c1ccc(F)cc1)c1ccc(Br)cc1 (stereo not drawn) | 3.42 |
| CCn1cc(C(=O)O)c(=O)c2cc(F)c(N3CCNCC3)nc21 | -0.2 |
| CCCCn1ccc(=O)c(O)c1C | 0.7 |
| O=C1NC(Cc2ccccc2)C(=O)N1Cc1ccccc1 (stereo not drawn) | 2.84 |
| CN(Cc1ccccc1)C(=O)C(Cc1ccccc1)NC(=O)C(Cc1cn(C(=O)OC(C)(C)C)c2ccccc12)NC(=O)CC1NC(=O)C2C3CCC(CC3)N2C1=O (stereo not drawn) | 5.33 |
| O=c1[nH]cc(F)c(=O)n1Oc1ccccc1 | 0.8 |
| CCCCCCNC(=O)n1cc(F)c(=O)[nH]c1=O | 2.63 |
| CC(C)(C)C(COc1ccccc1)OC(=O)n1ccnc1 (stereo not drawn) | 3.58 |
| CC(n1ccnc1)C(O)(c1ccc(F)cc1)c1ccc(F)cc1 (stereo not drawn) | 3.13 |
| CC(=O)C1CCC2C3CC(C)C4=CC(=O)CCC4(C)C3C(=O)CC12C (stereo not drawn) | 2.75 |
| Cc1cc(O)ccc1O | 0.91 |
| CCC(C(=O)OCc1ccc(C)cc1)C(CO)Cc1cncn1C (stereo not drawn) | 2.46 |
| CC(C)(C)OC(=O)C(C(=O)OC(C)(C)C)=C1SCCS1 | 4.01 |
